One data set deals with T1, AR (Homo sapiens, UniProt P10275, T878A).
T1 construct: LNCaP without transfection; endogenous in cells; host or cells: LNCaP
T1 sequence (P10275 1-920 T878A): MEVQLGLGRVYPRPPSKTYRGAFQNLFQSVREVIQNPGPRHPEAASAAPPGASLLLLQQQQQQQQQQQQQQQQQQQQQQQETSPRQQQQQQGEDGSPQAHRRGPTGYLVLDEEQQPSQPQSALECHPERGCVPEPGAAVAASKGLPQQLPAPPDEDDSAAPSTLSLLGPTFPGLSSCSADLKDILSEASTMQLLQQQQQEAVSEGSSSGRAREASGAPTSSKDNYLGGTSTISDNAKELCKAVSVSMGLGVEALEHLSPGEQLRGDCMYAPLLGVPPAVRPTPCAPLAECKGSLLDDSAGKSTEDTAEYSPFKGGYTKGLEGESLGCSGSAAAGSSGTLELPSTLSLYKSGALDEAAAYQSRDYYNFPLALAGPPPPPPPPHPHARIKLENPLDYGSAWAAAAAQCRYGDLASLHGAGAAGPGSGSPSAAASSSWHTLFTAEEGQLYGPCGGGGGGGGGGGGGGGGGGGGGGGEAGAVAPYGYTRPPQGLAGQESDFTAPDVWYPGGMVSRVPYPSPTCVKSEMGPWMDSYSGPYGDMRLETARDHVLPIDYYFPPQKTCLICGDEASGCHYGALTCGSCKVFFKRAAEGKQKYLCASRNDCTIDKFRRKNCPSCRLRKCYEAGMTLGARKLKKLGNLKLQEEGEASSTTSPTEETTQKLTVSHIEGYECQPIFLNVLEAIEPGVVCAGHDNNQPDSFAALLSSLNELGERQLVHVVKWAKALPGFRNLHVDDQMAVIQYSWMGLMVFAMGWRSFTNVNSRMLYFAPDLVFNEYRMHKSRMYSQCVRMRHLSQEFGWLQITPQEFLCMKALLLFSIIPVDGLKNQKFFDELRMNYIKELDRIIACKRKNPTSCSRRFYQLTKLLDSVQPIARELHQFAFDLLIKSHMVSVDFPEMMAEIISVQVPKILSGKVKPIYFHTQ
The data set is described as follows: Competitive [3H]-R1881 ligand binding assay, LNCaP whole cell extracts. As to conditions: 1 nM [3H]-R1881, unlabeled ligand 1-10,000 nM, relative to DHT. Here is the method:
Ligand Binding Assay. Whole cell extracts from COS-1 with transient transfection of pSG5-AR, or LNCaP without transfection, were incubated for 2 h at 37° C. with 1 nM [^3H]-synthetic androgen methyltrienolone (R1881) in the presence and absence of increasing concentrations (1-10,000 nM) of unlabeled ligands. Then, hydroxyapatite (Bio-Rad) was added and stirred for 15 min at 4° C. After centrifugation and washing, radioactivity was determined by scintillation counting.
Clinically available antiandrogens have an affinity for the AR, allowing a competition with androgens for binding. To determine whether ADEK has this common feature of AR antagonists, the competitive androgen binding assay was performed.

Another data set addresses T2, wild-type AR (Homo sapiens, UniProt P10275).
T2 sequence (P10275 1-920): T1 sequence (P10275 1-920 T878A) with A878T
Put plainly: Adiol-induced AR transcription, MMTV-Luc in PC-3 cells with pSG5-AR. Format: cell-based. Also noted: expressed in transfected cells; host or cells: PC-3. Conditions: PC-3, 2.5 nM Adiol, compound at 1 μM. The method, then: Cell Culture, Transfection, and Reporter Gene Assay. The human prostate cancer cell lines, LNCaP, PC-3, and DU145, and non-prostate cancer cell line COS-1 were maintained in RPMI or Dulbecco's modified Eagle's medium (DMEM) (Life Technologies) supplemented with 10% fetal bovine serum (FBS). Transfections and luciferase (Luc) assays were performed as previously described (Miyamoto, H., Yeh, S., Wilding, G. & Chang, C. (1998) Proc. Natl. Acad. Sci. USA 95, 7379-7384; Miyamoto, H., Rahman, M., Takatera, H., Kang, H.-Y., Yeh, S., Chang, H.-C., Nishimura, K., Fujimoto, N. & Chang, C. (2002) J. Biol. Chem. 277, 4609-4617). Briefly, cells seeded to reach a density of 50-60% confluence in 12 well tissue culture plates were transfected with 1.5 μg of DNA according to “SuperFect transfection” instructions (Qiagen). After 2-3 h incubation, cells were treated with medium supplemented with charcoal-stripped FBS containing either ethanol or ligands for 24 h. The cells were then harvested and whole cell extracts were used for Luc assay. The Luc activity was determined using a Dual-Luciferase Reporter Assay System (Promega) and luminometer.
Effect of ADEK on AR Transcription. […] (set as 100%). Values were obtained from the mean±SD of at least three determinations.

Positions count from the first letter of the chain named.

The term melting point denotes the temperature of the solid-liquid transition. Regarding `CC(=O)O[C@H]1C=C[C@@]2(C)C(=CC[C@@H]3[C@@H]2CC[C@@]2(C)[C@H]3CCC23OCCO3)C1` [ADEK, 3β-acetoxy-17,17-ethylenedioxyandrosta-1,5-diene], the melting point fell in the range of 105 to 106 °C. In addition, the “RBA in LNCaP” value at AR is recorded as 11.1. At wild-type AR, the “repression of Adiol-induced AR transcription” value is listed as “about 43%”.

Values taken from patent US7638509B2, “Diene compounds and formulations” (priority 2003, dated 2009).
